We go through four molecules from paper PMC3819915, “Stable Suppression of Lactate Dehydrogenase Activity during Anoxia in the Foot Muscle of Littorina littorea and the Potential Role of Acetylation as a Novel Posttranslational Regulatory Mechanism” (Enzyme Research, 2013).

For assay [1], the system named is T1, LDH (D-lactate specific LDH, D-LDH) from foot muscle, aerobic control.
T1 construct: native enzyme from foot muscle of aerobic control snails, partially purified on blue agarose; more acetylated than the 24 h anoxic form
The assay is described as follows: NADH absorbance at […] nm, microplate. Format: biochemical, Littorina littorea. To be noted: assay direction not stated for this effector, presumably pyruvate-reducing (pH 6.5, 2.5 mM pyruvate, 0.25 mM NADH); 25°C; control enzyme.

The test system is the same in assay [2]. The assay is described as follows: NADH absorbance at […] nm, microplate. It is filed as biochemical, Littorina littorea. As to conditions: 25°C, control enzyme.

With `Nc1ncnc2c1ncn2[C@@H]1O[C@H](COP(=O)(O)OP(=O)(O)O)[C@@H](O)[C@H]1O` [ADP], in assay [1], half-maximal inhibition (IC50) required 23 ± 2 mM.
Take `C[C@@H](O)C(=O)O` [D-lactate]: the Michaelis-Menten constant (Km) in assay [2] (D-lactate-oxidizing direction, 25 mM KH2PO4 pH 9.5, 3 mM NAD+) was determined as 25 ± 2 mM.
As to `CC(=O)C(=O)O` [pyruvate], the Km in assay [2] (25 mM KH2PO4 pH 6.5, 0.25 mM NADH) amounted to 0.29 ± 0.01 mM.
In turn, `Nc1ncnc2c1ncn2[C@@H]1O[C@H](COP(=O)(O)OP(=O)(O)OP(=O)(O)O)[C@@H](O)[C@H]1O` [ATP] yielded an IC50 in assay [1] of 13 ± 1 mM.

What is called IC50 is the concentration at which inhibition is half-maximal. The low end stands for greater potency, the high end for weaker potency. As a reminder, the Km is the concentration of substrate that gives half-maximal velocity.
